Assay results from US11617733B2, “Bicyclic compound and use thereof for medical purposes” (ONO PHARMACEUTICAL CO., LTD., priority 2009, dated 2023).

Legend:
mouse IP receptor = biological target: T1, mouse IP receptor (Mus musculus, UniProt P43252); test: IP agonist activity (cAMP concentration) in IP-CHO cells; format: cell-based; settings: for EC50: IP-CHO cells, cAMP production, read-out: Agonist activity on various prostanoid receptors: EC50 value, IP
T1 construct: expressed in transfected cells; host or cells: CHO cells (IP-CHO)
Excerpt: (§1) (1-1) Measurement of Agonist Activity on Various Mouse Prostanoid Receptors
(§2) Using CHO cells (FP-CHO, EP1-CHO and IP-CHO, respectively) in which various mouse prostanoid receptors were forcibly expressed, respectively, agonist activity of test compounds on various prostanoid receptors was studied employing an intracellular calcium concentration regarding FP and EP1, and an intracellular cyclic AMP (hereinafter, abbreviated as cAMP) production amount regarding IP, as an index.
(§3) The test compound and a control substance (PGE2 and iroprost) were dissolved with dimethyl sulfoxide (DMSO) to prepare a 10 mmol/L solution. Regarding the prepared 10 mmol/L solution, upon use, the 10 mmol/L solution was thawed, stepwisely-diluted using DMSO, and diluted with a buffer solution for measurement or a buffer solution for measurement 2, which was subjected to an experiment.
(§4) Cells forcibly expressing various mouse prostanoid receptors were standing-cultured at 37° C. in the presence of 5% CO2 using an α-MEM medium (Sigma) (for culturing FP-CHO and EP1-CHO) containing inactivated (56° C., 30 minutes) 9.8 vol % dialysed-FBS (Invitrogen) and penicillin-streptomycin-glutamine (GIBCO-BRL), or nucleic acid-containing α-MEM (Sigma) (for culturing IP-CHO) containing inactivated (56° C., 30 minutes) 9.8 vol % dialysed-FBS (Invitrogen) and penicillin-streptomycin glutamine (Invitrogen). Subculturing was performed by the following method.
(§5) The medium was removed, and washed with a phosphate-buffered physiological saline not containing Ca^2+ and Mg^2+ two times. A suitable amount of trypsin-EDTA (Invitrogen) was added, this was incubated at 37° C. for about 3 minutes, cells were peeled, and a medium having a volume which is 10-fold a volume of trypsin-EDTA was added to stop an enzymatic reaction. After cells were recovered (120 g) into a centrifuging tube, and centrifuged at room temperature for 3 minutes, the supernatant was removed. Cells were suspended in a suitable amount of a medium, and seeded in a culturing flask.
(1-3) Measurement of IP Agonist Activity (Measurement of cAMP Concentration)
On the measurement day, a medium was removed, and IP-CHO was washed with a phosphate-buffered physiological saline containing 2 mmol/L EDTA and not containing Ca^2+ and Mg^2+ once. A suitable amount of a phosphate-buffered physiological containing 2 mmol/L EDTA and not containing Ca^2+ and Mg^2+ was added, this was incubated at 37° C. for about 10 minutes, cells were peeled, cells were recovered (500 g) into a centrifuging tube, and centrifuged at room temperature for 3 minutes, and the supernatant was removed.
Cells were suspended in a suitable amount of a buffer solution for measurement 1 (MEM medium (Invitrogen) containing 0.1 w/v % bovine serum albumin (Sigma) and 2 μmol/L diclofenac (Sigma)), and centrifuged at room temperature for 3 minutes at 500 g, and the supernatant was removed. Cells were suspended in a buffer solution for measurement 2 (MEM medium (Invitrogen) containing 0.1 w/v % bovine serum albumin (Sigma), 2 μmol/L diclofenac (Sigma) and 1 mmol/L 3-isobutyl-1-methylxanthine), and each 25 μL of the suspension was dispensed into a 96-well ½ area plate so that the cell number per well became 5.0×10^4. A buffer solution for measurement 2 (25 μL) containing an agonist at a variety of concentrations was added to perform a reaction at room temperature for 30 minutes. Measurement of a cAMP concentration was performed using the cAMP HTRF HiRange kit (CIS bio International). According to the two step protocol of the kit manual, each 25 μL of cAMP-D2 and cryptate diluted with a lysis buffer were added, and this was incubated at room temperature for 1 hour. After incubation for 1 hour, time resolution fluorescence at 620 nm and 660 nm when excited at 340 nm was measured using Analyst GF (Molecular Device), and a ratio (TRF ratio) was obtained, thereby, a cAMP concentration was calculated from a calibration line. […]

mouse EP1 receptor = biological target: T2, mouse EP1 receptor (Mus musculus, UniProt P35375); test: EP1 agonist activity (intracellular calcium concentration) in EP1-CHO cells; format: cell-based; settings: for EC50: EP1-CHO cells, intracellular calcium concentration, read-out: Agonist activity on various prostanoid receptors: EC50 value, EP1
T2 construct: expressed in transfected cells; host or cells: CHO cells (EP1-CHO)
T2 sequence (P35375 1-405): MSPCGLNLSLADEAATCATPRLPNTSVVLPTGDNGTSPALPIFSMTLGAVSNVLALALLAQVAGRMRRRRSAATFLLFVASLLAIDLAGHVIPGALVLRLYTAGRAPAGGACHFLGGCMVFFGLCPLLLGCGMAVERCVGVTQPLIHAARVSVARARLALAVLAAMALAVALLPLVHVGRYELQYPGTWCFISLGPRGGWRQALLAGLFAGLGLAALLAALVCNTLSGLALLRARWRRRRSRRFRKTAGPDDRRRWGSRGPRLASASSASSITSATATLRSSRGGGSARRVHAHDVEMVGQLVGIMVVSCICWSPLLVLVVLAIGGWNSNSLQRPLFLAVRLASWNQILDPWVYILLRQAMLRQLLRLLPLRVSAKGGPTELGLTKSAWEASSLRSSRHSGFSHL
Excerpt: as §1, §2, §3, §4, §5
(§6) (1-2) Measurement of FP and EP1 Agonist Activity (Measurement of Intracellular Calcium Concentration)
(§7) Regarding FP-CHO and EP1-CHO, by the same method as that of subculturing, cells were peeled and suspended and, before two days from measurement, the suspension was seeded on a 96-well UV plate so that the cell number per well became 1.0×10^4, and standing-cultured at 37° C. in the presence of 5% CO2. On the measurement day, after the medium was removed from each well of the 96-well UV plate, each well was washed with a phosphate-buffered physiological saline not containing Ca^2+ and Mg^2+ once. To each well was added 100 μL of a medium containing 5 μmol/L fura 2-AM (DOJINDO), 2.5 mmol/L Probenecid (Sigma), 20 μmol/L indometacin (Sigma) and 10 mmol/L HEPES (Invitrogen), and this was incubated for about 60 minutes in a CO2 incubator. After completion of the incubation, the medium was removed, and this was washed with a buffer solution for measurement (Hank's balanced salt solution (Nissui Pharmaceutical Co., Ltd., 9.8 g of the present product was dissolved in 1 L distilled water) containing 0.1 or 1 w/v % bovine serum albumin, 2 μmol/L indometacin, 2.5 mmol/L Probenecid and 10 mmol/L HEPES-NaOH (pH 7.4)) two times. To each well was added 120 μL of a buffer solution for measurement, and this was allowed to stand in a CO2 incubator for 30 minutes, and stabilized, which was subjected to an experiment.
(§8) The 96-well UV plate was set in a fluorescent spectral photometer (FDSS-3000, Hamamatsu Photonics K.K.), and an intracellular calcium concentration was measured. A buffered solution for measurement ([…]) containing an agonist at a variety of concentrations was added to perform a reaction. Measurement of an intracellular calcium concentration was performed by irradiating cells with excited light of 340 nm and 380 nm alternately, measuring a fluorescent intensity at 500 nm, and obtaining a fluorescent intensity ratio of 2-wavelength excitation. […]

mouse FP receptor = biological target: T3, mouse FP receptor (Mus musculus, UniProt P43117); test: FP agonist activity (intracellular calcium concentration) in FP-CHO cells; format: cell-based; settings: for EC50: FP-CHO cells, intracellular calcium concentration, read-out: Agonist activity on various prostanoid receptors: EC50 value, FP
T3 construct: expressed in transfected cells; host or cells: CHO cells (FP-CHO)
Excerpt: as §1, §2, §3, §4, §5, §6, §7, §8

male dog (TOYO Beagle) = test: Intraocular pressure lowering action in dog after ocular instillation; format: in vivo
Experimental: (2-1) Intraocular Pressure Lowering Action
To one eye of a male dog (TOYO Beagle) which had been sufficiently acclimated in advance was ocular-instilled 30 μL of each test compound (compound of Example 16 (35), compound of Example 16 (3) and compound of Example 16(25)) which had been adjusted with a base (containing citrate buffer pH 6.5, 0.5% polysorbate 80, 1% propylene glycol, 0.01% benzalkonium chloride) to 0.01% (w/v) or 0.001% (w/v), respectively. The other eye was not treated. As a positive control compound, latanoprost which is the known compound was used.
Thereafter, an ocular surface anesthetic (Benoxil eye drops 0.4%, Santen Pharmaceutical Co., Ltd.) was subjected to ocular instillation to locally anesthetize eyes, and an intraocular pressure of each test compound before ocular instillation and after 2, 4, 6, 8, and 24 hours from ocular instillation was measured. An intraocular pressure was measured using a pneumatic applanation flat tonometer (Model 30 Classic, REICHERT). An intraocular pressure lowering rate (%) was calculated by the following equation. Intraocular pressure lowering rate (%)=(intraocular pressure value before ocular instillation−intraocular pressure value at each point)/(intraocular pressure value before ocular instillation)×100 [Mathematic 1]

[1] = tested on: male rabbit (NewZealandWhite); test: Aqueous humor protein concentration in rabbit after ocular instillation; format: in vivo; settings: ocular instillation 30 μL, 0.1% (w/v), 0-8 hours
Experimental: (2-2) Assessment of Ocular Stimulating Property and Aqueous Humor Protein Concentration
To one eye of a male rabbit (NewZealandWhite, 2.0 to 3.0 kg) was ocular-instilled 30 μL of the compound of Example 16 (35), the compound of Example 16 (3) and the compound of Example 16 (25) which had been adjusted to 0.1% (w/v) with a base (containing citrate buffer pH 6.5, 0.5% polysorbate 80, 1% propylene glycol, 0.01% benzalkonium chloride), respectively. Thereafter, an aqueous humor in anterior chamber after 0, 1, 2, 4, 6 and 8 hours from ocular instillation was collected, and a protein concentration in the humor was measured. As a comparative compound, the aforementioned methyl ester of the compound of Example 12 described in Patent Literature 2 (i.e. compound of Example 10 described in Patent Literature 2) (hereinafter, abbreviated as Comparative Compound B in some cases) was used.
Regarding any test compound, a dose until a dissolution limit (150 to 1000 μg/mL) was administered and action of each active body was assessed.

T1 sequence (P43252 whole entry): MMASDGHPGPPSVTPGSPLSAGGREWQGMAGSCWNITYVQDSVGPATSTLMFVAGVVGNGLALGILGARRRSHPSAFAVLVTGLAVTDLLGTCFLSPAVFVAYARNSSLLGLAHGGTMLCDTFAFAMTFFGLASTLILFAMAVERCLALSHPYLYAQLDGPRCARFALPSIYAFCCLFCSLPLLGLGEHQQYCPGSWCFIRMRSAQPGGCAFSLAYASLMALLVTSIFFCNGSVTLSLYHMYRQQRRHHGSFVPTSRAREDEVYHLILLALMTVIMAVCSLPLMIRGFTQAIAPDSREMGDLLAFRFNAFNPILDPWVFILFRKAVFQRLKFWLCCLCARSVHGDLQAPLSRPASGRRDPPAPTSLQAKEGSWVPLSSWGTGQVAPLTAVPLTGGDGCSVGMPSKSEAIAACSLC
T3 sequence (P43117 whole entry): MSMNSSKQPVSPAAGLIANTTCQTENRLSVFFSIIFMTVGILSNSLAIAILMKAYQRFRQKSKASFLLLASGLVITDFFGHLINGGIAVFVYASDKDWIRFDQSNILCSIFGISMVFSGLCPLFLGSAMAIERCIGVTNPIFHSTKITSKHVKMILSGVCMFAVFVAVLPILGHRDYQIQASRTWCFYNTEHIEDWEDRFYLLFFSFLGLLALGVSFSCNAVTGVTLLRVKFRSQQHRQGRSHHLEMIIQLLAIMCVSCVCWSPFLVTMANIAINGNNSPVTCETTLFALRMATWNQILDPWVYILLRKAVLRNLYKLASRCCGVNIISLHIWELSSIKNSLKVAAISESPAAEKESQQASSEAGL

Row | Compound | Agonist activity on an IP receptor (in words) (mouse IP receptor; summary of Table 7) | Agonist activity on an EP1 receptor (in words) (mouse EP1 receptor; summary of Table 7) | Agonist activity on a FP receptor (in words) (mouse FP receptor; summary of Table 7) | EC50 (mouse IP receptor) [nM] | EC50 (mouse EP1 receptor) [nM] | EC50 (mouse FP receptor) [nM] | Intraocular pressure lowering action compared with positive control latanoprost (in words) (male dog (TOYO Beagle)) | Action on protein concentration in aqueous humor (in words) [1]
1 | O=C(O)CCC[C@H]1CC[C@@H]2[C@@H](/C=C/[C@@H](O)COc3ccccc3)[C@H](O)C[C@@H]2O1 [Comparative Compound A, reference compound] | has agonist activity | has agonist activity | has agonist activity | – | – | – | – | –
2 | CC(C)OC(=O)CCC[C@H]1CC[C@@H]2[C@@H](/C=C/[C@@H](O)COc3cccc(Cl)c3)[C@H](O)C[C@@H]2OC1 [Example 16 (3), 2-Propanyl 4-{(3S, 5aR, 6R, 7R, 8aS)-6-[(1E, 3R)-4-(3-chlorophenoxy)-3-hydroxy-1-buten-1-yl]-7-hydroxyoctahydro-2H-cyclopenta[b]oxepin-3-yl}butanoate] | – | – | – | – | – | – | stronger intraocular pressure lowering action as compared with latanoprost | no action of raising a protein concentration in an aqueous humor
3 | O=C(O)COC[C@H]1CC[C@@H]2[C@@H](/C=C/[C@@H](O)COc3cc(F)cc(Cl)c3)[C@H](O)C[C@@H]2OC1 [Example 29 (12), ({(3R, 5aR, 6R, 7R, 8aS)-6-[(1E,3R)-4-(3-chloro-5-fluorophenoxy)-3-hydroxy-1-buten-1-yl]-7-hydroxyoctahydro-2H-cyclopenta[b]oxepin-3-yl}methoxy)acetic acid] | – | – | – | > 10000 | > 10000 | 7.1 | – | –
4 | O=C(O)CCC[C@H]1CC[C@@H]2[C@@H](/C=C/C(F)(F)COc3ccccc3)[C@H](O)C[C@@H]2OC1 [Example 32, 4-{(3S, 5aR, 6R, 7R, 8aS)-6-[(1E)-3,3-difluoro-4-phenoxy-1-buten-1-yl]-7-hydroxyoctahydro-2H-cyclopenta[b]oxepin-3-yl}butanoic acid] | – | – | – | > 10000 | > 10000 | 1.6 | – | –

Second part, led by results:

Row | Agonist activity on an IP receptor (in words) (mouse IP receptor; summary of Table 7) | Agonist activity on an EP1 receptor (in words) (mouse EP1 receptor; summary of Table 7) | Agonist activity on a FP receptor (in words) (mouse FP receptor; summary of Table 7) | EC50 (mouse IP receptor) [nM] | EC50 (mouse EP1 receptor) [nM] | EC50 (mouse FP receptor) [nM] | Compound | Intraocular pressure lowering action compared with positive control latanoprost (in words) (male dog (TOYO Beagle)) | Action on protein concentration in aqueous humor (in words) [1]
5 | – | – | – | > 10000 | 3200 | 3 | O=C(O)CCC[C@H]1CC[C@@H]2[C@@H](/C=C/[C@@H](O)COc3cccc(Cl)c3)[C@H](O)C[C@@H]2OC1 [Example 17 (3), 4-{(3S, 5aR, 6R, 7R, 8aS)-6-[(1E, 3R)-4-(3-chlorophenoxy)-3-hydroxy-1-buten-1-yl]-7-hydroxyoctahydro-2H-cyclopenta[b]oxepin-3-yl}butanoic acid] | – | –
6 | – | – | – | > 10000 | > 10000 | 8.8 | Cc1cccc(OC[C@H](O)/C=C/[C@@H]2[C@H]3CC[C@H](CCCC(=O)O)CO[C@H]3C[C@H]2O)c1 [Example 17 (4), 4-{(3S, 5aR, 6R, 7R, 8aS)-7-hydroxy-6-[(1E, 3R)-3-hydroxy-4-(3-methylphenoxy)-1-buten-1-yl]octahydro-2H-cyclopenta[b]oxepin-3-yl}butanoic acid] | – | –
7 | – | – | – | > 10000 | 100 | 8.3 | O=C(O)CCC[C@H]1CC[C@@H]2[C@@H](/C=C/[C@@H](O)COc3ccccc3)[C@H](O)C[C@@H]2OC1 [Example 17 (23), 4-{(3S, 5aR, 6R, 7R, 8aS)-7-hydroxy-6-[(1E, 3R)-3-hydroxy-4-phenoxy-1-buten-1-yl]octahydro-2H-cyclopenta(b]oxepin-3-yl}butanoic acid] | – | –
8 | – | – | – | > 10000 | 857 | 2.4 | O=C(O)CCC[C@H]1CC[C@@H]2[C@@H](/C=C/[C@@H](O)COc3cc(F)ccc3F)[C@H](O)C[C@@H]2OC1 [Example 17 (25), 4-{(3S, 5aR, 6R, 7R, 8aS)-6-[(1E, 3R)-4-(2,5-difluorophenoxy)-3-hydroxy-1-buten-1-yl]-7-hydroxyoctahydro-2H-cyclopenta[b]oxepin-3-yl}butanoic acid] | – | –
